{"source": "paper PMC8915576", "about": "(Frontiers in Pain Research, 2021)", "molecules": {"B1": {"name": "β-arrestin-1-Renilla Luciferase8 (natural protein, UniProt P49407 1-418, looked up)", "chain": "MGDKGTRVFKKASPNGKLTVYLGKRDFVDHIDLVDPVDGVVLVDPEYLKERRVYVTLTCAFRYGREDLDVLGLTFRKDLFVANVQSFPPAPEDKKPLTRLQERLIKKLGEHAYPFTFEIPPNLPCSVTLQPGPEDTGKACGVDYEVKAFCAENLEEKIHKRNSVRLVIRKVQYAPERPGPQPTAETTRQFLMSDKPLHLEASLDKEIYYHGEPISVNVHVTNNTNKTVKKIKISVRQYADICLFNTAQYKCPVAMEEADDTVAPSSTFCKVYTLTPFLANNREKRGLALDGKLKHEDTNLASSTLLREGANREILGIIVSYKVKVKLVVSRGGLLGDLASSDVAVELPFTLMHPKPKEEPPHREVPENETPVDTNLIELDTNDDDIVFEDFARQRLKGMKDDKEEEEDGTGSPQLNNR", "notes": "β-arrestin-1; BRET donor; also called βarr1; β-arr1; source: HEK293, transfected (FuGENE 6), in live cells"}}, "key": {"[1]": {"system": "MOPr-VACC inhibition in dorsal root ganglia (DRG) neurons", "assay": "cells", "assay_type": "cell-based, mouse", "conditions": "for IC50: read-out: IC50, VACC inhibition; for Emax: read-out: Emax (% inhibition), VACC inhibition"}, "[2]": {"molecular_target": "MOPr (mMOR-Venus) / Gαi-luciferase (Mus musculus, UniProt P42866)", "sequence (P63096 whole entry)": "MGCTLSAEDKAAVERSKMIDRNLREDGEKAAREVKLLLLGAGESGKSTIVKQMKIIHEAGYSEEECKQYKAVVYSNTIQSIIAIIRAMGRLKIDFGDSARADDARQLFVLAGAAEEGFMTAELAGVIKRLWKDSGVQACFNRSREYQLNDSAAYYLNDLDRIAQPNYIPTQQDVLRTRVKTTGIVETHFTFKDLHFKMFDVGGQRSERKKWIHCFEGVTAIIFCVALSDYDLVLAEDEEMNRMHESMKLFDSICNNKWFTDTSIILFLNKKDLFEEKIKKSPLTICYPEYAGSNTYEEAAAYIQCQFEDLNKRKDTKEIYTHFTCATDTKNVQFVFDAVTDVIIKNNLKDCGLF", "sequence (P42866 whole entry)": "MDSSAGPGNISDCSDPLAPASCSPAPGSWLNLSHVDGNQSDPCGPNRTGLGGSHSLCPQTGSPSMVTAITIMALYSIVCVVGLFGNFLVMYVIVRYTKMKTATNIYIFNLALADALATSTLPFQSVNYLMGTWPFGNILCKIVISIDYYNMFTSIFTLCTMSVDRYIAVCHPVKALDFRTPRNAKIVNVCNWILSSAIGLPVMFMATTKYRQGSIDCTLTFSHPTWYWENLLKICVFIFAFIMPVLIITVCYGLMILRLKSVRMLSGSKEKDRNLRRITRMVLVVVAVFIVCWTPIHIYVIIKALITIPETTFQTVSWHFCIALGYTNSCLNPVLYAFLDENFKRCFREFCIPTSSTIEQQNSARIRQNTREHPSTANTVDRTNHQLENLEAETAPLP", "sequence (P59768 whole entry, further chain)": "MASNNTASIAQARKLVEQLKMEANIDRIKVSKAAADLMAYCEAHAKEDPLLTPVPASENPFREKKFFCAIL", "sequence (P62873 whole entry, further chain)": "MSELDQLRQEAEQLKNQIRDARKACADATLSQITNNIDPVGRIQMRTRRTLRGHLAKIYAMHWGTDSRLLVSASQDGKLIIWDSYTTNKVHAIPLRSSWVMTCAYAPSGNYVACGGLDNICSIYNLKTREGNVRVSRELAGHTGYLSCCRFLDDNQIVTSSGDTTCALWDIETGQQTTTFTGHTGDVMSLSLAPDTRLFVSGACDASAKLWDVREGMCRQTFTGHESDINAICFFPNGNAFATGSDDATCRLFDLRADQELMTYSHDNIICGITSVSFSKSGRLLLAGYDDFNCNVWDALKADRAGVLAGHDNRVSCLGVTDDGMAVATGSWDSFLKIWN", "assay": "cell-based", "assay_type": "cell-based"}, "[3]": {"molecular_target": "MOPr (mMOR-Venus) / βarr2-luciferase (Mus musculus, UniProt P42866)", "sequence (P32121 whole entry)": "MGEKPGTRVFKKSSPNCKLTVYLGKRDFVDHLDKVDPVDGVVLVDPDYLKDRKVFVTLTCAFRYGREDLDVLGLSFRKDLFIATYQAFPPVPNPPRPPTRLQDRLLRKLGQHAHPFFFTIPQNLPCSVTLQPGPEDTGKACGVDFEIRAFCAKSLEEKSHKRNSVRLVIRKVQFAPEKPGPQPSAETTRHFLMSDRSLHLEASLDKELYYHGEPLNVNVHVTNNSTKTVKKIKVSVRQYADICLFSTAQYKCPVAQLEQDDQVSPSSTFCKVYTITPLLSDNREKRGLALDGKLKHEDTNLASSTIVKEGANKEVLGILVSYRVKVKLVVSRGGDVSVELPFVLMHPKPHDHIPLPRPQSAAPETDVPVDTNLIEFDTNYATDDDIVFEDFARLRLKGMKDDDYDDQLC", "sequence (P42866 whole entry)": "as the sequence (P42866 whole entry) above", "assay": "cell-based"}, "[4]": {"molecular_target": "MOPr (mMOR-Venus) / βarr1-luciferase (Mus musculus, UniProt P42866)", "sequence (P42866 whole entry, one chain of several)": "as the sequence (P42866 whole entry) above", "assay": "cell-based", "assay_type": "cell-based"}, "MOPr": {"molecular_target": "T1, MOPr (Mus musculus, UniProt P42866)", "T1 construct": "expressed in transfected cells; host or cells: HEK293", "T1 sequence (P42866 whole entry)": "as above", "assay_type": "cell-based"}, "[5]": {"molecular_target": "FAP-tagged MOPr in HEK cells (Homo sapiens, UniProt P35372)", "sequence (P35372 whole entry)": "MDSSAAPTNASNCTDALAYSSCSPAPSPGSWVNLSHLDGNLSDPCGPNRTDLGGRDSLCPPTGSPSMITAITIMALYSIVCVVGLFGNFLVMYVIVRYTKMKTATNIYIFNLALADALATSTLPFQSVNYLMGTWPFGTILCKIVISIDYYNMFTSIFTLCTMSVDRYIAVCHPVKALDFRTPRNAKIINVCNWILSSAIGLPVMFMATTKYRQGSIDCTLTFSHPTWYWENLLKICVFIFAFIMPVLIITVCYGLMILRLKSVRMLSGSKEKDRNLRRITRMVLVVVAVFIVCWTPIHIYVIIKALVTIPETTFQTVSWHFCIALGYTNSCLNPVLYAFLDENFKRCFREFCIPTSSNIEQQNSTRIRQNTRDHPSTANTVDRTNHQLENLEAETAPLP", "assay": "cell-based", "assay_type": "cell-based", "conditions": "for Emax: Emax (% background), internalization"}, "[6]": {"system": "MOPr-VACC inhibition in DRG neurons", "assay_type": "cell-based, mouse"}, "VACCs in DRG neurons": {"system": "VACCs in DRG neurons", "assay": "Voltage-dependent component of agonist-VACC inhibition (high-voltage pre-pulse)", "assay_type": "cell-based, mouse", "conditions": "normalized to each agonist's inhibition"}, "[7]": {"molecular_target": "T2, MOR (recombinant human receptor) (Homo sapiens, UniProt P35372)", "T2 construct": "host or cells: CHO-K1 membranes", "T2 sequence (P35372 whole entry)": "as above", "assay_type": "binding", "conditions": "calculated as t1/2 = 0.69/koff"}, "[8]": {"system": "VACCs in DRG neurons lacking βarr1", "assay": "VACC inhibition in DRG neurons of βarr1-knockout mice", "assay_type": "cell-based, mouse", "conditions": "βarr1-knockout vs WT DRG neurons; NKTR-181 30 μM"}, "[9]": {"system": "carrageenan-induced thermal hyperalgesia", "assay": "Thermal withdrawal thresholds (Hargreaves) after i.pl. carrageenan", "assay_type": "in vivo, mouse"}, "thermal nociception": {"system": "thermal nociception", "assay": "Thermal withdrawal thresholds (Hargreaves) after i.pl. vehicle", "assay_type": "in vivo, mouse", "conditions": "3 mg/kg i.pl., mice"}, "drug preference": {"system": "drug preference", "assay": "Conditioned place preference in pain-naive mice", "assay_type": "in vivo, mouse"}, "[10]": {"system": "carrageenan-induced place aversion", "assay": "Carrageenan-induced conditioned place aversion", "assay_type": "in vivo, mouse", "conditions": "1 mg/kg i.pl., male mice"}, "drug-seeking behavior": {"system": "drug-seeking behavior", "assay": "Intravenous self-administration (IVSA), FR10 schedule", "assay_type": "in vivo, Sprague–Dawley rats", "conditions": "for number of reinforcers obtained vs saline: FR10, rats"}, "[11]": {"molecular_target": "Mu opioid receptor (MOPr) of the competitive binding assays (UniProt P42866)", "sequence (P42866 whole entry)": "as the sequence (P42866 whole entry) above"}, "[12]": {"molecular_target": "T3, mMOR-Venus (mu opioid receptor, Venus-tagged) (mouse (from the label mMOR), UniProt P42866 1-398)", "T3 construct": "mu opioid receptor (MOPr), printed as mMOR; BRET acceptor; 'm' in mMOR is read as mouse; also called MOPr-venus; MOPr; source: HEK293, transfected (FuGENE 6), in live cells", "T3 sequence (P42866 whole entry, the tested form may be a part)": "as the sequence (P42866 whole entry) above", "assay": "FRET or BRET; live HEK293 cells co-transfected with mMOR-Venus (acceptor) and Renilla Luciferase8-tagged β-arrestin-1, β-arrestin-2 or Gαi (donor; Gαi with untagged Gβγ fusion); agonist added at 0 nM-100 μM (DAMGO, NKTR-181, oxycodone, morphine, fentanyl); coelenterazine h 4.5 μM; 30°C; netBRET as percent of the maximum DAMGO response, four-parameter fit", "conditions": "partners not purified"}}, "note": "Read-outs that look alike come from different tables or passages of the source.", "data": [{"molecule": "C[C@@H](NC(=O)[C@@H](N)Cc1ccc(O)cc1)C(=O)NCC(=O)N(C)[C@@H](Cc1ccccc1)C(=O)NCCO", "note": "[DAMGO, [D-Ala^2, N-MePhe^4, Gly-ol]-enkephalin]", "values": [{"measurement": "Emax (% inhibition), VACC inhibition", "setting": "[1]", "value": "41 ± 4", "unit": "% inhibition"}, {"measurement": "IC50", "setting": "[1]", "value": 228, "unit": "nM"}, {"measurement": "σ (transduction coefficient), Gαi recruitment", "setting": "[2]", "value": 0}, {"measurement": "σ (transduction coefficient), β-arr2 recruitment", "setting": "[3]", "value": 0}, {"measurement": "σ (transduction coefficient), β-arr1 recruitment", "setting": "[4]", "value": 0}, {"measurement": "Bias factor Gαi vs βarr1", "setting": "MOPr", "value": "Unbiased"}, {"measurement": "Bias factor Gαi vs βarr2", "setting": "MOPr", "value": "Unbiased"}, {"measurement": "Bias factor βarr1 vs βarr2", "setting": "MOPr", "value": "Unbiased"}, {"measurement": "Emax", "setting": "[5]; HEK293, read-out: 30 min", "value": "78 ± 6", "unit": "%"}, {"measurement": "Emax", "setting": "[5]; HEK293, read-out: 60 min", "value": "72 ± 7", "unit": "%"}, {"measurement": "rapid desensitization (loss of VACC inhibition)", "setting": "[6]", "value": "greater desensitization than NKTR-181"}, {"measurement": "voltage-dependent component of VACC inhibition", "setting": "VACCs in DRG neurons", "value": "predominantly inhibit VACCs by a voltage-dependent mechanism"}]}, {"molecule": "CN1CC[C@]23c4c5ccc(O)c4O[C@H]2[C@@H](O)C=C[C@H]3[C@H]1C5", "note": "[Morphine, morphine]", "values": [{"measurement": "Emax", "setting": "[1]; Mus musculus, DRG neuron", "value": "33 ± 6", "unit": "%"}, {"measurement": "rapid desensitization (loss of VACC inhibition)", "setting": "[6]", "value": "greater desensitization than NKTR-181"}, {"measurement": "voltage-dependent component of VACC inhibition", "setting": "VACCs in DRG neurons", "value": "predominantly inhibit VACCs by a voltage-dependent mechanism"}]}, {"molecule": "COc1ccc2c3c1O[C@H]1C(=O)CC[C@@]4(O)[C@@H](C2)N(C)CC[C@]314", "note": "[Oxycodone, oxycodone]", "values": [{"measurement": "Emax", "setting": "[1]; Mus musculus, DRG neuron", "value": "34 ± 10", "unit": "%"}, {"measurement": "IC50", "setting": "[1]; Mus musculus, DRG neuron", "value": 1700, "unit": "nM"}, {"measurement": "EC50", "setting": "[2]", "value": 355, "unit": "nM"}, {"measurement": "σ (transduction coefficient), Gαi recruitment", "setting": "[2]", "value": "0.006 ± 0.07"}, {"measurement": "Emax", "setting": "[2]; HEK293, read-out: Emax, Gαi recruitment", "value": "62.5 ± 0.9", "unit": "%"}, {"measurement": "EC50", "setting": "[3]", "value": 100, "unit": "nM"}, {"measurement": "σ (transduction coefficient), β-arr2 recruitment", "setting": "[3]", "value": "−0.17 ± 0.05"}, {"measurement": "EC50", "setting": "[4]", "value": 389, "unit": "nM"}, {"measurement": "σ (transduction coefficient), β-arr1 recruitment", "setting": "[4]", "value": "0.07 ± 0.05"}, {"measurement": "Emax", "setting": "[4]; HEK293, read-out: Emax, β-arr1 recruitment", "value": "63.9 ± 0.8", "unit": "%"}, {"measurement": "Bias factor Gαi vs βarr1", "setting": "MOPr", "value": "−0.14 ± 0.07"}, {"measurement": "Bias factor Gαi vs βarr2", "setting": "MOPr", "value": "0.17 ± 0.08"}, {"measurement": "Bias factor βarr1 vs βarr2", "setting": "MOPr", "value": "0.32 ± 0.06"}, {"measurement": "MOPr internalization, dose-dependence and comparison", "setting": "[5]", "value": "did not result in a dose-dependent effect and could not be curve-fitted at any timepoint"}, {"measurement": "dissociation half-life t1/2", "setting": "[7]", "value": 1.25, "unit": "min"}, {"measurement": "rapid desensitization (loss of VACC inhibition)", "setting": "[6]", "value": "limited desensitization"}, {"measurement": "voltage-dependent component of VACC inhibition", "setting": "VACCs in DRG neurons", "value": "predominantly inhibit VACCs by a voltage-dependent mechanism"}, {"measurement": "requirement of βarr1 for full VACC inhibition", "setting": "[8]", "value": "require βarr1 to obtain full VACC inhibition"}, {"measurement": "reversal of carrageenan-induced hyperalgesia", "setting": "[9]; 1 mg/kg i.pl., mice", "value": "did not reverse carrageenan-induced hyperalgesia"}, {"measurement": "thermal withdrawal thresholds following i.pl. carrageenan", "setting": "[9]; 3 mg/kg i.pl., mice", "value": "increased withdrawal thresholds following i.pl. carrageenan"}, {"measurement": "time to reach peak levels of effect", "setting": "[9]; antinociception / anti-hyperalgesia, carrageenan model, 10 min was the earliest timepoint measured", "value": 10, "unit": "min"}, {"measurement": "sex difference in anti-hyperalgesia", "setting": "[9]; higher dose (oxycodone 3 mg/kg, NKTR-181 100 mg/kg), male vs female mice", "value": "No sex differences were evident"}, {"measurement": "thermal withdrawal thresholds following i.pl. vehicle", "setting": "thermal nociception", "value": "increased withdrawal thresholds following i.pl. vehicle"}, {"measurement": "conditioned place preference", "setting": "drug preference; 1 mg/kg i.pl.", "value": "did not produce a place preference in either male or female mice"}, {"measurement": "conditioned place preference", "setting": "drug preference; 3 mg/kg i.pl.", "value": "produced a place preference in both sexes"}, {"measurement": "carrageenan-induced place aversion", "setting": "[10]", "value": "prevented place aversion"}, {"measurement": "number of reinforcers obtained vs saline", "setting": "drug-seeking behavior; 0.1 mg/kg/infusion", "value": "no difference"}, {"measurement": "number of reinforcers obtained vs saline", "setting": "drug-seeking behavior; 0.01 and 0.032 mg/kg/infusion", "value": "higher"}, {"measurement": "total amount of drug infused over the hour-long session", "setting": "drug-seeking behavior; across the three doses of each drug, rats", "value": "increase in the total amount of drug infused across all doses"}]}, {"molecule": "[D-Ala^2, N-MePhe^4, Gly-ol]-enkephalin (peptide)", "values": [{"measurement": "Emax (% inhibition) of VACCs in cultured adult mouse DRG neurons, whole-cell patch clamp", "setting": "[11]", "value": 41, "unit": "% inhibition"}, {"measurement": "IC50 of inhibition of voltage-activated calcium channel currents (VACCs) in cultured adult mouse DRG neurons, whole-cell patch clamp", "setting": "[11]", "value": 228, "unit": "nM"}]}, {"molecule": "B1", "values": [{"measurement": "LogEC50 of the agonist DAMGO for the recruitment", "setting": "[12]", "value": "-6.94 ± 0.09", "unit": "log M"}, {"measurement": "LogEC50 of the agonist NKTR-181 for the recruitment", "setting": "[12]", "value": "-6.45 ± 0.12", "unit": "log M"}, {"measurement": "LogEC50 of the agonist fentanyl for the recruitment", "setting": "[12]", "value": "-8 ± 0.12", "unit": "log M"}, {"measurement": "LogEC50 of the agonist morphine for the recruitment", "setting": "[12]", "value": "-6.3 ± 0.18", "unit": "log M"}, {"measurement": "LogEC50 of the agonist oxycodone for the recruitment", "setting": "[12]", "value": "-6.41 ± 0.12", "unit": "log M"}]}]}
